# Measurements: patent US12156860B2, “Disorders implicating PUFA oxidation” (BioJiva LLC, priority 2011, dated 2024)
# Experiments:
# Q-less coq3 yeast = test: Yeast incubated with different ratios of H- and D-PUFA, plate dilution; assay type: cell-based, S. cerevisiae; conditions: after 3 hours of treatment, data not shown
# Protocol: FIG. 9. […] Wild-type, yeast Q-less coq3, or respiratory deficient cor1 null mutants were incubated in the presence of 200 μM of LA and D2-LA at different ratios of PUFAs. Serial dilutions (1:5) starting at 0.2 OD/ml were spotted on YPD solid plate medium. A zero-time untreated control is shown on the top left. Growth at 30° C.
# FIG. 10. […] Serial dilutions (1:5) starting at 0.2 OD/ml were spotted on YPD solid plate medium. Growth at 30° C.
# Wild-type, yeast Q-less coq3, or respiratory deficient cor1 null mutants were incubated in the presence of 200 μM of LA and D2-LA at different ratios of PUFAs, as indicated in FIG. 9. Serial dilutions (1:5) starting at 0.2 OD/ml were spotted on YPD solid plate medium. […] Growth was at 30° C.
# Serial dilutions (1:5) starting at 0.2 OD/ml were spotted on YPD solid plate medium. Growth was at 30° C.
# [1] = system: coq null mutants (Q-less yeast); conditions: for viability of coq null mutants after fatty acid treatment: 200 μM fatty acid, plate dilution / colony assay; for protection in the yeast model: compared with D4-linolenic acid
# Protocol: FIG. 3. […] Yeast coq3, coq7 and coq9 null mutants were prepared in the W303 yeast genetic background (WT). Yeast strains were grown in YPD medium (1% Bacto-yeast extract, 2% Bacto-peptone, 2% dextrose) and harvested while in log phase growth (OD600 nm=0.1-1.0). Cells were washed twice with sterile water and resuspended in phosphate buffer (0.10 M sodium phosphate, pH 6.2, 0.2% dextrose) to an OD600 nm=0.2. Samples were removed and 1:5 serial dilutions starting at 0.20 OD/ml were plated on YPD plate medium, to provide a zero time untreated control (shown in top left panel). The designated fatty acids were added to 200 μM final concentration to 20 ml of yeast in phosphate buffer. At 2 h, 4 h, and 16 h samples were removed, 1:5 serial dilutions prepared, and spotted onto YPD plate medium. Pictures were taken after 2 days of growth at 30° C.
# FIG. 4. […] The fatty acid sensitive assay was performed as described in FIG. 3, except that 100 μl aliquots were removed at 1, 2, and 4 h and, following dilution, spread onto YPD plates. Pictures were taken after 2 to 2.5 days, and the number of colonies counted. Yeast strains include Wild type (circles), atp2 (triangles), or coq3 (squares); Fatty acid treatments include oleic C18:1 (solid line), linolenic, C18:3, n-3 (dashed line) or 11,11,14,14-D4-linolenic, C18:3, n-3, (dotted line).
# Q-less yeast (coq mutants) provide an ideal system to assess in vivo autoxidation of fatty acids. Coenzyme Q (ubiquinone or Q) serves as a small lipophilic antioxidant as well as an electron shuttle in the respiratory chain of the mitochondrial inner membrane. Ten S. cerevisiae genes (COQ1-COQ10) are required for coenzyme Q biosynthesis and function, and the deletion of any results in respiratory deficiency (Tran U C, Clarke C F. Mitochondrion 2007; 7S, 562).
# A plate dilution assay can be used to assess PUFA sensitivity. This assay can be performed by spotting serial five-fold dilutions of aliquots onto YPD plate media (FIG. 3). The sensitivity of the different strains can be observed by visual inspection of the density of cells in each spot.
# NASH (MCD diet) rats = test: NASH induced by methionine and choline deficient diet; assay type: in vivo, Rattus norvegicus, Wistar; conditions: daily over three months
# Protocol: (§1) Fifty male heterozygous rats, 45-days-old, from the Rattus norvegicus species and Wistar lineage are kept in polypropylene cages, in groups of five animals, under a 12 h-clear/dark cycle and under controlled temperature conditions. The induction of NASH is carried out through a diet deficient in methionine and choline (MCD) according to known procedures (See Rogers A E, Newberne P M. Alcoholic and nutritional fatty liver and cirrhosis. Am J Pathol. 1973; 73:817-20). […] During the study period, the animals are weighed on a weekly basis and the drugs dose is readjusted as necessary. On the first day of the study, besides determining the animals' weight, their blood is collected through retro-orbital plexus puncture for biochemical analysis: alanine-aminotransferase (ALT) and aspartate-aminotransferase (AST) (colorimetric test, using the Labtest kit). One day after concluding the induction period and compound administration (90 days), animals are sacrificed by decapitation. Once more, each animal's blood is collected for biochemical analysis. Then, laparotomy with total hepatectomy and liver preparation are carried out for lipoperoxidation (LPO) and histological analysis. Liver tissue samples are analyzed using the thiobarbituric-acid reactant substance (TBARS) measurement according to known methods (See Lowry et al. Protein measurement with the folin phenol reagent. J Biol Chem. 1951; 193:265-75) and the results are expressed in nmol of malondialdehyde/mg of protein. Slides with liver fragments are also dyed with hematoxilin-eosine and picrosirius, in order to evaluate the fibrosis level, and with Perls to evaluate the presence of iron stores, having been examined by an only pathologist blinded to the animals' data. The minimum histological criterion for NASH diagnosis is the presence of hepatocellular ballooning-related steatosis, involving zone 3 and lobular inflammatory infiltrate. Mallory corpuscles and sinusoidal fibrosis, involving zone 3 might be present or not. The graduation of both necroinflammatory and fibrosis activity is carried out according to known classifications (See Brunt E M, Janney C G, Di Bisceglie A M, Neuschwander-Tetri B A, Bacon B R. Nonalcoholic steatohepatitis: a proposal for grading and staging the histological lesions. Am J Gastroenterol. 1999; 94:2467-74).
# WT (W303) yeast = conditions: 200 μM, 4 h incubation
# Protocol: Uptake of exogenously supplied fatty acids by yeast. WT (W303) yeast were harvested at log phase and incubated in the presence of 200 μM of the designated fatty acid for either 0 or 4 h.
# Wild-type yeast were harvested during log phase growth and incubated in the presence of exogenously added fatty acid (for 0 or 4 h) in the presence of phosphate buffer plus 0.20% dextrose, as described for the fatty acid sensitivity assay. Cells were harvested, washed twice with 10 ml sterile water, and the yeast cell pellets were then processed by alkaline methanolysis as described above. The fatty acids are detected as methylesters (FAMEs) following GC-MS with C17:0 added as an internal standard (FIG. 6).
# [2] = system: stroke-prone spontaneously hypertensive (SHRSP) rat; test: SHRSP rat model of hypertension; assay type: in vivo; conditions: SHRSP rats, 8 weeks
# Text: The stroke-prone spontaneously hypertensive (SHRSP) rat model of hypertension, which has been previously described (McIntyre et al., 1997 Hypertension 30:1517; Alexander et al., 1999 Cardiovasc. Res. 43:798; Fennell et al., 2002 Gene Ther. 9:110), can be used for the assessment of a compound's ability to mitigate hypertension.
# rat hearts = test: Langendorf isolated heart perfusion model, echo- and electrocardiography; assay type: in vivo; conditions: rats, 8 weeks supplementation
# Protocol: Test compounds disclosed herein can also be assessed using the Langendorf isolated heart perfusion model. […] Following the treatment period, rat hearts are analyzed by echocardiography for measurement of muscle thickness of the left ventricle, left atrium, right ventricle, and right atrium and electrocardiography for measuring electrical activity. After live evaluation, rats are humanely sacrificed and their hearts isolated and connected to the Langendorf isolated perfusion system (See Jennings et al., Am. Surg. 2004; 70(9), 797-800). Left ventricular pressure is then measured with a left ventricular balloon. Coronary flow is also measured. Cardiac function is further assessed by determining the effect of administration of test compounds on the rate of contraction and relaxation of the heart. To determine whether any observed effects on cardiac function are due to the effect of the test compound on mitochondrial function, mitochondrial activity pre-ischemia and post-ischemia is assessed for each of the treatment groups.
# [3] = system: alcoholic liver disease rats; test: Alcoholic liver disease and cirrhosis induced by 5% ethanol diet; assay type: in vivo, Rattus norvegicus, Wistar; conditions: 5% ethanol diet rats, daily over three months
# Protocol: as §1, with “alcoholic liver disease and cirrhosis” for “NASH”, “containing 5% ethanol […].” for “deficient in methionine and choline (MCD) according to known procedures (See Rogers A E, Newberne P M. Alcoholic and nutritional fatty liver and cirrhosis. Am J Pathol. 1973; 73:817-20).”, “days), the” for “days),”, “data.” for “data. The minimum histological criterion for NASH diagnosis is the presence of hepatocellular ballooning-related steatosis, involving zone 3 and lobular inflammatory infiltrate. Mallory corpuscles and sinusoidal fibrosis, involving zone 3 might be present or not. The graduation of both necroinflammatory and fibrosis activity is carried out according to known classifications (See Brunt E M, Janney C G, Di Bisceglie A M, Neuschwander-Tetri B A, Bacon B R. Nonalcoholic steatohepatitis: a proposal for grading and staging the histological lesions. Am J Gastroenterol. 1999; 94:2467-74).”
# [4] = Kinetics of O2 consumption during AMVN-initiated oxidation in chlorobenzene (glass capillary microvolumeter); assay type: physicochemical
# Protocol: FIG. 7. Kinetics of O2 consumption accompanied the oxidation of 0.71 M LA (plots 1 and 2) and 0.71 M D2-LA (plot 3) in chlorobenzene initiated by 40 mM AMVN at 37° C. Plot 2-0.23 mM HPMC was added to 0.71 M LA.
# The kinetics of oxygen consumption during the oxidation of LA and D2-LA was studied with a glass capillary microvolumeter (FIG. 7). The rate of oxidation, ROX, was measured as a slope of [O2] traces. The rate of initiation, RIN, was determined by the inhibitor method with HPMC (“6-hydroxy-2,2,5,7,8-pentamethylbenzochroman”) as a reference inhibitor. RIN was calculated from the induction period of inhibited oxidation, tIND: RIN=2·[HPMC]/tIND. […] When the process was inhibited by 0.23 mM chain-breaking antioxidant HPMC, the duration of the induction period, tIND, was about 48 min, with the RIN value of around 0.16×10^−6 M/s. […] The latter precludes a direct determination of RIN. […] An estimated kinetic isotope effect (“KIE”), from comparison of ROX for LA and D2-LA, was around 6.1×10^−6/0.18×10^−6≈35. A similar KIE was determined during the oxidation of LA and 11,11-d2-LA in Triton X-100 aqueous micelles (data not shown). For comparative purposes, the theoretical KIE is 6.9 at 25° C. See Carpenter, “Determination of Organic Reaction Mechanisms” (John Wiley & Sons, 1984), p. 89.
# [5] = cited from earlier work
# [6] = system: coq null mutants (Q-less yeast); conditions: cited from earlier work; for sensitivity of Q-less yeast to fatty acid treatment: compared with wild-type parental strain
# [7] = system: wild-type (W303-1B) yeast cells; conditions: four hour treatment; cited from earlier work
compound,measurement,setting,value
"[2H]C(/C=C\CCCCC)/C=C\CCCCCCCC(=O)O (stereo not shown) [11,11-D,H-LA, [11^−2 H]-linoleic acid]",cell viability,Q-less coq3 yeast,no detectable loss in cell viability
"[2H]C([2H])(/C=C\CC)/C=C\C([2H])([2H])/C=C\CCCCCCCC(=O)O [D4-linolenic acid, 11,11,14,14-Tetradeutero-cis,cis,cis-9,12,15-Octadecatrienoic acid]",viability of coq null mutants after fatty acid treatment,[1],resistant to PUFA-mediated cell killing
same,viability of cells compared with oleic acid treatment,[1]; quantitative colony counting (FIG. 4),similar
same,amount of MDA in liver samples (TBARS),NASH (MCD diet) rats,reduce the amount of MDA found in liver samples
same,histological signs of NASH,NASH (MCD diet) rats,reverse the histological signs of NASH
same,incorporation of fatty acid by yeast,WT (W303) yeast,avidly incorporate
same,systolic blood pressure,[2],reduction in systolic blood pressure
same,symptoms and markers associated with cardiac disorders,rat hearts,reduce symptoms and markers associated with cardiac disorders
same,amount of MDA in liver samples (TBARS),[3],reduce the amount of MDA found in liver samples
same,histological signs of fatty liver disease,[3],reverse the histological signs of fatty liver disease
"CCCCC/C=C\C/C=C\CCCCCCCC(=O)O [LA, cis,cis-9,12-Octadecadienoic acid, reference compound]","rate of oxidation, ROX","[4]; 0.71 M in chlorobenzene, 40 mM AMVN, 37° C.",6.1e-06 M/s
same,"length of the kinetic chain, ROX/RIN",[4]; for D2-LA assuming RIN comparable to that of LA,38±3
same,oxidizability,[4]; n=5,0.0215±0.008 M^−0.5 s^−0.5
"[2H]O[2H] [heavy water, D2O]",amount a 70 kg person might drink without serious consequences,[5],4.8 L
CCCCC/C=C\C/C=C\C/C=C\C/C=C\CCCC(=O)O [arachidonic acid],sensitivity of Q-less yeast to fatty acid treatment,[6],hypersensitive
"CC/C=C\C/C=C\C/C=C\CCCCCCCC(=O)O [linolenic acid, cis,cis,cis-9,12,15-Octadecatrienoic acid, reference compound]",viability of coq null mutants after fatty acid treatment,[1],dramatic loss of viability
same,incorporation of fatty acid by yeast,WT (W303) yeast,avidly incorporate
same,"viable Q-less (coq2, coq3, and coq5) yeast mutants",[6]; following a four hour treatment,Less than 1%
same,wild-type cells remaining viable,[7],70%
"[2H]C([2H])(/C=C\C/C=C\CC)C/C=C\CCCCCCC(=O)O [11, 11-D2-linolenic acid, 11,11-Dideutero-cis,cis,cis-octadeca-8,12,15-trienoic acid]",protection in the yeast model,[1],comparable protection
CCCCCCCC/C=C\CCCCCCCC(=O)O [oleic acid],sensitivity of Q-less yeast to fatty acid treatment,[6],behave the same as the wild-type parental strain
"[2H]C([2H])(/C=C\CC)/C=C\CC/C=C\CCCCCCC(=O)O [14, 14-D2-linolenic acid, 14,14-Dideutero-cis,cis,cis-octadeca-8,12,15-trienoic acid]",protection in the yeast model,[1],comparable protection
